Data as given in PubChem BioAssay (NCI).
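A five-concentration, 48-hour dose response in 96-well plates underlies each endpoint, interpolated linearly between surrounding concentrations. GI50 is the concentration that inhibits growth by half. The concentration for full growth arrest is given as TGI.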

Each compound was assayed on HOP-62 NSCLC (assay: inhibition of tumour cell growth, NCI panel, 48 h).

| SMILES | TGI | GI50 |
| --- | --- | --- |
| CCc1cccc(C)c1NC(=O)CC1C(=O)Nc2ccccc2S1=O (stereo not given) | > 100 µM |  |
| Cc1ccc(N2C(=O)N(c3ccc(C)cc3)C3(SC=NN3C)C2=O)cc1 (stereo not given) | > 100 µM |  |
| O=C1c2ccc3c4ccccc4n(-c4ccccc4)c3c2C(=O)N1c1ccc(Cl)cc1 | > 100 µM |  |
| Cc1ccc2c(c1-c1ccccc1)C(=O)OC2 | > 100 µM |  |
| CCC[CH2][Sn]1([CH2]CCC)[O]CC(COc2c(Cl)cc(Cl)cc2Cl)[O]1 (stereo not given) | 7.97 µM | 2.63 µM |
| CSc1ccc2c(cc1=O)[C@@H](NC(=O)c1cc(O)c(O)c(O)c1)CCc1cc(O)c(O)c(O)c1-2 | > 100 µM |  |
| COc1cc(-c2nnc3n2NC=C(C(=O)O)S3)cc(OC)c1OC | > 100 µM |  |
| C[P+](C)(C)c1ccccc1 | > 100 µM |  |
| O=C1c2ccccc2C(=O)N1C/C=N/NS(=O)(=O)c1ccc(Br)cc1 | > 100 µM |  |
| COc1cc(/C=C/C(=O)Oc2ccccc2)ccc1C(=O)O/C=C/c1ccccc1 | > 100 µM |  |
| NC(=O)c1cn(Cc2ccccc2)c(=O)n1Cc1ccccc1 | > 100 µM |  |
| CCOC(=O)C(C)(c1c(C)[nH]c2ccccc12)c1c(C)[nH]c2ccccc12 | 43.6 µM |  |
| Cc1c(Cl)cccc1NC(=O)c1cccc([N+](=O)[O-])c1O | 29.3 µM |  |
| CC1COS(=O)O1 (stereo not given) | > 100 µM |  |
| CC1CCC(C(C)(C)c2ccccc2)C(=O)C1 (stereo not given) | > 100 µM |  |
| O=C1CC2CCN(C(=O)c3ccccc3)CC2CCN1 (stereo not given) | > 100 µM |  |
| O=C1C=CC(=CC=C2C=CN(CCCCCCCCCCC(=O)NCCCCCCCCCCCC(=O)O)C=C2)C=C1 | > 100 µM |  |

| SMILES | TGI | GI50 |
| --- | --- | --- |
| CNC(C)[C@H]1CCC2C3CC=C4C(=O)[C@@H](NC(=O)C=C(C)C)CC[C@]4(C)C3CC[C@@]21C (stereo not given in full) | 3.63 µM | 1.7 µM |
| Clc1nc(Cl)c2ncn(Cc3ccccc3Cn3cnc4c(Cl)nc(Cl)nc43)c2n1 | 19.3 µM | 9.11 µM |
| C1COCCSC2=C(SCCO1)SC(=C1SC3=C(SCCOCCOCCS3)S1)S2 | > 100 µM |  |
| O=C(Nc1ccc(Cl)cc1)Nc1nccs1 | > 100 µM | 15.1 µM |
| CC(C)(C)c1cc(C(=O)/C=C/c2ccc(C(=O)O)cc2)cc(C(C)(C)C)c1 | 6.49 µM |  |
| COc1cc(/C=N\O[Si](C)(C)C(C)(C)C)ccc1O[Si](C)(C)C(C)(C)C | > 100 µM |  |
| Cc1noc2c1-c1ccccc1C(c1ccc(Cl)cc1)=N[C@H]2CC(N)=O | > 100 µM | 2.6 µM |
| O=C(N/N=C/c1ccc(O)cc1O)c1cccnc1 | > 100 µM | 13.4 µM |
| O=C(NNc1cnccn1)c1nc2cc(F)ccc2n2cccc12 | > 100 µM | 0.364 µM |
| NCCCOc1cc(Cl)ccc1NC(=O)c1cc2ccccc2cc1OCCCN | 2.59 µM | 1.26 µM |
| NCCCOc1cc2ccccc2cc1C(=O)NCCCOc1cc2ccccc2cc1C(=O)Nc1ccc(Cl)cc1O | 1.14 µM | 0.34 µM |
| CCOC(=O)C1=C(N)Oc2c(sc3c(C)cccc23)C1c1ccc(F)cc1 (stereo not given) | 20.1 µM | 0.618 µM |
| O=C1/C(=C/N2N=C(c3ccc4ccccc4c3)CC2c2ccccc2O)SC(=S)N1c1cccnc1 (stereo not given) | > 100 µM | 2.49 µM |
| NC(N)=N/N=C(\N=Nc1ccccc1)c1ccc(Cl)cc1 | 18.8 µM | 5.1 µM |
| c1ccc2c(c1)c1ccccc1c1ccccc21 | > 100 µM | > 100 µM |
| NCCN.O=C([O-])[O-].O=C([O-])[O-].[Co+3].[K+] | > 100 µM | > 100 µM |
| NC(=O)CNc1ccc([As]=[As]c2ccc(NCC(N)=O)cc2)cc1 (stereo not given) | 14.6 µM | 3.94 µM |

The compounds below were run on A498 renal (assay: inhibition of tumour cell growth, NCI panel, 48 h).

| SMILES | TGI | GI50 |
| --- | --- | --- |
| Cc1ccc(N2C(=O)N(c3ccc(C)cc3)C3(SC=NN3C)C2=O)cc1 (stereo not given) | > 100 µM |  |
| O=C1c2ccc3c4ccccc4n(-c4ccccc4)c3c2C(=O)N1c1ccc(Cl)cc1 | > 100 µM |  |
| Cc1ccc2c(c1-c1ccccc1)C(=O)OC2 | > 100 µM |  |
| CCC[CH2][Sn]1([CH2]CCC)[O]CC(COc2c(Cl)cc(Cl)cc2Cl)[O]1 (stereo not given) | 2.65 µM | 1.31 µM |
| NC(CCc1ncc(C(=O)O)s1)C(=O)O (stereo not given) | > 100 µM |  |
| CSc1ccc2c(cc1=O)[C@@H](NC(=O)c1cc(O)c(O)c(O)c1)CCc1cc(O)c(O)c(O)c1-2 | > 100 µM |  |
| COc1cc(-c2nnc3n2NC=C(C(=O)O)S3)cc(OC)c1OC | > 100 µM |  |
| O=C1c2ccccc2C(=O)N1C/C=N/NS(=O)(=O)c1ccc(Br)cc1 | > 100 µM |  |
| COc1cc(/C=C/C(=O)Oc2ccccc2)ccc1C(=O)O/C=C/c1ccccc1 | > 21.5 µM |  |
| NC(=O)c1cn(Cc2ccccc2)c(=O)n1Cc1ccccc1 | > 100 µM |  |
| CCOC(=O)C(C)(c1c(C)[nH]c2ccccc12)c1c(C)[nH]c2ccccc12 | 36.6 µM |  |
| Cc1c(Cl)cccc1NC(=O)c1cccc([N+](=O)[O-])c1O | 45.9 µM |  |
| CC1COS(=O)O1 (stereo not given) | > 100 µM |  |
| CC1CCC(C(C)(C)c2ccccc2)C(=O)C1 (stereo not given) | > 100 µM |  |
| O=C1CC2CCN(C(=O)c3ccccc3)CC2CCN1 (stereo not given) | > 100 µM |  |
| O=C1C=CC(=CC=C2C=CN(CCCCCCCCCCC(=O)NCCCCCCCCCCCC(=O)O)C=C2)C=C1 | > 100 µM |  |

| SMILES | TGI | GI50 |
| --- | --- | --- |
| CNC(C)[C@H]1CCC2C3CC=C4C(=O)[C@@H](NC(=O)C=C(C)C)CC[C@]4(C)C3CC[C@@]21C (stereo not given in full) | 8.26 µM | 1.3 µM |
| Clc1nc(Cl)c2ncn(Cc3ccccc3Cn3cnc4c(Cl)nc(Cl)nc43)c2n1 | 27.7 µM | 11.2 µM |
| C1COCCSC2=C(SCCO1)SC(=C1SC3=C(SCCOCCOCCS3)S1)S2 | > 100 µM |  |
| O=C(Nc1ccc(Cl)cc1)Nc1nccs1 | 16.9 µM | 0.518 µM |
| CC(C)(C)c1cc(C(=O)/C=C/c2ccc(C(=O)O)cc2)cc(C(C)(C)C)c1 | 3.52 µM |  |
| Cc1noc2c1-c1ccccc1C(c1ccc(Cl)cc1)=N[C@H]2CC(N)=O | 15.5 µM | 0.235 µM |
| O=C(N/N=C/c1ccc(O)cc1O)c1cccnc1 | 84.1 µM | 11.5 µM |
| O=C(NNc1cnccn1)c1nc2cc(F)ccc2n2cccc12 | 2.67 µM | 0.575 µM |
| NCCCOc1cc(Cl)ccc1NC(=O)c1cc2ccccc2cc1OCCCN | 3.08 µM | 1.58 µM |
| NCCCOc1cc2ccccc2cc1C(=O)NCCCOc1cc2ccccc2cc1C(=O)Nc1ccc(Cl)cc1O | 1.99 µM | 0.552 µM |
| CCOC(=O)C1=C(N)Oc2c(sc3c(C)cccc23)C1c1ccc(F)cc1 (stereo not given) | 1.26 µM | 0.211 µM |
| O=C1/C(=C/N2N=C(c3ccc4ccccc4c3)CC2c2ccccc2O)SC(=S)N1c1cccnc1 (stereo not given) | 5.83 µM | 1.38 µM |
| NC(N)=N/N=C(\N=Nc1ccccc1)c1ccc(Cl)cc1 | 22.2 µM | 9.53 µM |
| c1ccc2c(c1)c1ccccc1c1ccccc21 | > 100 µM | > 100 µM |
| NCCN.O=C([O-])[O-].O=C([O-])[O-].[Co+3].[K+] | > 100 µM | > 100 µM |
| NC(=O)CNc1ccc([As]=[As]c2ccc(NCC(N)=O)cc2)cc1 (stereo not given) | 18 µM | 4.69 µM |

The compounds below were run on M19-MEL melanoma (assay: inhibition of tumour cell growth, NCI panel, 48 h).

| SMILES | TGI | GI50 |
| --- | --- | --- |
| Cc1ccc(N2C(=O)N(c3ccc(C)cc3)C3(SC=NN3C)C2=O)cc1 (stereo not given) | > 100 µM |  |
| O=C1c2ccc3c4ccccc4n(-c4ccccc4)c3c2C(=O)N1c1ccc(Cl)cc1 | > 100 µM |  |
| Cc1ccc2c(c1-c1ccccc1)C(=O)OC2 | > 100 µM |  |
| CCC[CH2][Sn]1([CH2]CCC)[O]CC(COc2c(Cl)cc(Cl)cc2Cl)[O]1 (stereo not given) | 2.22 µM | 0.941 µM |
| NC(CCc1ncc(C(=O)O)s1)C(=O)O (stereo not given) | > 100 µM |  |
| CSc1ccc2c(cc1=O)[C@@H](NC(=O)c1cc(O)c(O)c(O)c1)CCc1cc(O)c(O)c(O)c1-2 | 29.9 µM |  |
| COc1cc(-c2nnc3n2NC=C(C(=O)O)S3)cc(OC)c1OC | > 100 µM |  |
| C[P+](C)(C)c1ccccc1 | > 100 µM |  |
| O=C1c2ccccc2C(=O)N1C/C=N/NS(=O)(=O)c1ccc(Br)cc1 | > 100 µM |  |
| COc1cc(/C=C/C(=O)Oc2ccccc2)ccc1C(=O)O/C=C/c1ccccc1 | > 100 µM |  |
| NC(=O)c1cn(Cc2ccccc2)c(=O)n1Cc1ccccc1 | > 100 µM |  |
| Cc1c(Cl)cccc1NC(=O)c1cccc([N+](=O)[O-])c1O | 48 µM |  |
| CC1COS(=O)O1 (stereo not given) | > 100 µM |  |
